The results in this text go back to article PMC9354042, “Discovery of BRAF/HDAC Dual Inhibitors Suppressing Proliferation of Human Colorectal Cancer Cells” (Frontiers in Chemistry, 2022).

Common to all, as to type: biochemical
In assay [1] the target is T1, BRAF (wild-type) (Homo sapiens, UniProt P15056).
T1 construct: purchased Invitrogen
As to the kind of experiment: wild-type BRAF enzymatic activity, Z'-Lyte kinase assay. Particulars: wild-type BRAF kinase; read-out: BRAF^wt enzymatic IC50. Here is the method:
(§1) The experiments were performed according to the instructions of the manufacturer. […] For each assay, 10 μl kinase reactions were added to 384-well plate, mixed thoroughly, and incubated for 1 hour at room temperature. Then, a 5 μl development solution was added to each well and the plate was incubated for another 1 h at room temperature. Then, a 5 μl stop reagent was loaded to stop the reaction. For the control setting, a 5 μl phospho-peptide solution instead of kinase/peptide mixture was used as 100% phosphorylation control. […] The plate was measured on an EnVision Multilabel Reader (Perkin-Elmer). Curve fitting and data presentations were performed using GraphPad Prism, version 5.0. Every experiment was repeated at least two times.

The test system of assay [2] is BRAF (wild-type). The assay is described as above. Particulars: ratio of enzymatic IC50. How it is done:
as §1

The next assay addresses T2, HDAC4 (Homo sapiens, UniProt P56524).
T2 construct: purchased BPS Bioscience
Nature of the assay: HDAC4 fluorescent-based enzymatic activity assay. The following applies: Table 3 isoform panel; read-out: Enzyme inhibition HDAC4 (Class IIA). How it is done: (§2) The purified recombinant Human HDACs and their corresponding substrates were purchased from BPS Bioscience (BPS Bioscience Inc., United States). The assays were carried out in a 384-well format using the BPS fluorescent–based HDAC activity assay according to the manufacturer’s protocol. In brief, […] of the HDAC reaction mixture was composed of HDAC assay buffer, […] BSA, serial diluted test compounds, appropriate concentration of HDACs, and […] fluorogenic substrate, the mixture was incubated at 37°C for 60 min, and then stopped by the addition of developer containing trypsin and TSA. After 20 min of incubation, the fluorescence was detected at the excitation wavelength of 360 nm and the emission wavelength of 460 nm using the EnVision Multilabel Reader (PerkinElmer Inc., United States). The analytical software, GraphPad Prism 5.0 (GraphPad Software, Inc., United States) was used to generate IC50 value via non-linear regression analysis.

The target in a further assay is T3, BRAF^V600E (Homo sapiens, UniProt P15056, V600E).
T3 construct: purchased Invitrogen
T3 sequence (P15056 whole entry V600E): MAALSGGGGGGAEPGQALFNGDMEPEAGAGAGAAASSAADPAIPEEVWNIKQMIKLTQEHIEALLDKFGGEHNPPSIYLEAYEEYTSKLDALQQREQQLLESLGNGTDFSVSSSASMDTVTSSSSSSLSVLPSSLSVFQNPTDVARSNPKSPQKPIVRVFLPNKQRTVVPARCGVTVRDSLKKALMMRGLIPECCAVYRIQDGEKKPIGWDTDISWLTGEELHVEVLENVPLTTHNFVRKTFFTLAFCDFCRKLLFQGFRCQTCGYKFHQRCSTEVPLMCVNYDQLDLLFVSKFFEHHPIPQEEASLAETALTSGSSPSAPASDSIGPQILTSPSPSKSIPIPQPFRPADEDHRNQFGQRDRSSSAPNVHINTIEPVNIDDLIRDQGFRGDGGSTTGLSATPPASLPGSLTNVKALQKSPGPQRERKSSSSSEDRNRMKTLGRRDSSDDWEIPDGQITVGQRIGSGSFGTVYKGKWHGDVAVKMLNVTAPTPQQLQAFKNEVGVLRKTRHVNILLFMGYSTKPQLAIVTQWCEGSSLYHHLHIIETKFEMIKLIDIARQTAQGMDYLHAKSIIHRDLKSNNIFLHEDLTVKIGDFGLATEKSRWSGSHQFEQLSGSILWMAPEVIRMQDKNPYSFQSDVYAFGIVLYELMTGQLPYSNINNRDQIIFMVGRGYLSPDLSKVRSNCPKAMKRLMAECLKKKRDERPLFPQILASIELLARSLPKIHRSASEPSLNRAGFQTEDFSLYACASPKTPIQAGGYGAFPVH
As to the kind of experiment: BRAF V600E enzymatic activity, FRET-based Z'-Lyte kinase assay. Here is the method: as §1

A further assay deals with T4, HDAC2 (Homo sapiens, UniProt Q92769).
T4 construct: purchased BPS Bioscience
T4 sequence (Q92769 whole entry): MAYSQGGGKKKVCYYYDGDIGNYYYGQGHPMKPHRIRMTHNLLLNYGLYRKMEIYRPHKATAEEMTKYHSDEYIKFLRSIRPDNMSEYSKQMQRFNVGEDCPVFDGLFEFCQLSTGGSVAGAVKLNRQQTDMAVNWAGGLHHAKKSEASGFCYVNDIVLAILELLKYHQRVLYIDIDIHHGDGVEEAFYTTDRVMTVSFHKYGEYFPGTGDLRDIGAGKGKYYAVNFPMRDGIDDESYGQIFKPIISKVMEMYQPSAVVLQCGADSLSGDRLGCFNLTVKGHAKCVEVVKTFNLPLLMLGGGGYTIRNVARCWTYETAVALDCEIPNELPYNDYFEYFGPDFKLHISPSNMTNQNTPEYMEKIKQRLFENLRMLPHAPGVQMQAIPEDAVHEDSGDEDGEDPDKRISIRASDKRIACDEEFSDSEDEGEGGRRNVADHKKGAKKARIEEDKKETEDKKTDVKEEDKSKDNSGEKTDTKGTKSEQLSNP
Nature of the assay: HDAC2 fluorescent-based enzymatic activity assay. The following applies: Table 3 isoform panel; read-out: Enzyme inhibition HDAC2 (Class I). Here is the method: as §2

Structures are written as SMILES. Some results are limits rather than exact numbers.

T1 sequence (P15056 whole entry): as the sequence (P15056 whole entry V600E) above, with E600V counted along it
T2 sequence (P56524 whole entry): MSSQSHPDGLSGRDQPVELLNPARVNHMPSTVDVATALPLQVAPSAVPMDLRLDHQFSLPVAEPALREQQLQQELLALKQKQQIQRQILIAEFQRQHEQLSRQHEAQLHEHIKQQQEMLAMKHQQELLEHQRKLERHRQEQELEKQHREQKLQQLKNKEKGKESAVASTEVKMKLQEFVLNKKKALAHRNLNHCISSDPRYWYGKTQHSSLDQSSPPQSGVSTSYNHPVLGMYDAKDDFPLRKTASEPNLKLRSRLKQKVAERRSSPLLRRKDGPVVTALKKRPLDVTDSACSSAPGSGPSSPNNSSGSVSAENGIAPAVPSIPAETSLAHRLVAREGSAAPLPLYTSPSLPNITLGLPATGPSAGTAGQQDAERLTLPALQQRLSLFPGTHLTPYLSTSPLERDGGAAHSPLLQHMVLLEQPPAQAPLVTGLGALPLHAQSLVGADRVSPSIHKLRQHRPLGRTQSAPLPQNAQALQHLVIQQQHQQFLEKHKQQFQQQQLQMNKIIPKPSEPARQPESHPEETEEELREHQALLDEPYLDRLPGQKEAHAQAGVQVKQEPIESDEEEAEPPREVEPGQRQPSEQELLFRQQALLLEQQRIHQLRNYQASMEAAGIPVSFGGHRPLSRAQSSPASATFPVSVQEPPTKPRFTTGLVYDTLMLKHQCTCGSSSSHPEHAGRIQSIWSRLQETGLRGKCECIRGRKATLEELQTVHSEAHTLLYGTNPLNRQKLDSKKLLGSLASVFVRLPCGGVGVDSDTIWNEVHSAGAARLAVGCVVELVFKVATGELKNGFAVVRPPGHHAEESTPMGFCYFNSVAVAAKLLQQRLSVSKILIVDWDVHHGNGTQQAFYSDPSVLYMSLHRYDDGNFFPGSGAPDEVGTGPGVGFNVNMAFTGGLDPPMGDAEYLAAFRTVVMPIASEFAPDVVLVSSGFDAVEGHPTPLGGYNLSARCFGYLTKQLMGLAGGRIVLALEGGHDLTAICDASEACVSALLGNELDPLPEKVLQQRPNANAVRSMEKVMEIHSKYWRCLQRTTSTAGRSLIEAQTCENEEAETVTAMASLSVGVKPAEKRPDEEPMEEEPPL

As to `CC(C)(C)c1nc(-c2cccc(NS(=O)(=O)c3c(F)cccc3F)c2F)c(-c2ccnc(NCCCCCCC(=O)NO)n2)s1` [14b, 7-{[4-(2-(Tert-Butyl)-4-(3-((2,6-Difluorophenyl)Sulfonamido)-2-Fluorophenyl)Thiazol-5-yl)Pyrimidin-2-yl]Amino}-N-Hydroxyheptanamide], the IC50 at BRAF (wild-type) [1] was 4.07 nM; at HDAC4 it was greater than 100000 nM; against BRAF^V600E, 1.71 nM; on HDAC2 it was 747 nM. Further, the “selectivity of BRAF^V600E over wild-type BRAF” value in the assay with BRAF (wild-type) [2] was “about 2 fold”.
